{"source": "patent US9622469B2", "about": "“Crosslink breakers for preservation of biological substances” (priority 2013, dated 2017)", "key": {"[1]": {"test_system": "HOD alloantigen on stored RBCs", "assay": "Immunogenicity of stored blood upon transfusion (anti-HOD IgG ELISA)", "format": "in vivo, mouse", "conditions": "blood stored 14 days, transfused into B6 mice, 14 days following transfusion", "experimental": "(§1) Leuko-reduced mouse blood was stored under typical storage conditions for up to 14 days, in either OCR6043, control compound, or without any treatment. FIG. 2A illustrates an analysis of glucose in the serum from the stored blood was evaluated using a glucose oxidase enzymatic assay. […] FIG. 2B illustrates the AGE precursor levels on RBCs were measured using a dicarbonyl-specific fluorophore that was developed in-house. The time dependent increase in the AGE precursor levels was dampened in the presence of OCR6043. FIG. 2C illustrates mouse blood that was stored for 14 days, was evaluated for its immunogenicity upon transfusion, by testing for IgGs against an alloantigen on the RBCs (HOD=HEL-OVA-Duffy).\nOCR6043 treatment decreases immunogenicity, and enhances post-transfusion recovery of stored mouse blood. Leukoreduced mouse blood was stored under typical storage conditions for up to 14 days in either OCR6043 or without any treatment. This mouse blood was evaluated for its immunogenicity upon transfusion by testing for IgGs against an alloantigen on the RBCs (HOD=HEL-OVA-Duffy).\nAs described herein, the stored blood has an HOD marker allowing facile detection after transfusion. We transfused […] of stored blood into B6 mice (not expressing the HOD antigen). […] The anti-HOD IgG response was evaluated using standard ELISA techniques described in Hendrickson et at."}, "[2]": {"assay": "NHC-mediated reaction with α-keto aldehyde methylglyoxal (17), Method B", "format": "biochemical", "conditions": "isolated yield with respect to 2", "experimental": "60 mM solution of dicarbonyl substrate (45 μmol) in MeCN (0.75 ml) was added to 20 mM solution of NHC (15 μmol) in 0.15 M pH 7.4 sodium phosphate buffer (0.75 ml) and kept stirred at 37° C. At stated times, 75 μl aliquots were taken, diluted with 50% MeCN/H2O (425 μl) and analyzed by LCMS with 2,4-dihydroxyquinoline (248 μM) as an internal standard. The cleavage products were quantified by peak integration against the calibration curves.\nFour diastereomers (ALT-MGO-1 through ALT-MGO-4) were obtained with a similar method to ALT-PG using 2 (100 mg, 0.37 mmol) and 40% methylglyoxal (MOO, 17) solution (0.2 ml, 1.3 mmol, 3.5 eq). Purification was performed by HPLC (9-19% MeCN over 32 min), and the lyophilization of fractions afforded the title compounds as white solids (96% combined yield). See Supplementary Material for characterization data.\nReactions involving α-keto aldehyde derivatives 16 and 17 followed an unexpected course. Treatment of these substrates with 2 led to instantaneous, high-yield production of a diastercomeric mixture of cycloadducts (19 and 20) that decompose to complex mixtures under the reaction conditions with half-lives of approximately 3 h Structures were determined based on in-depth NMR analysis (see Supplementary Material)."}, "stored mouse blood": {"test_system": "stored mouse blood", "assay": "Glucose in serum of stored mouse blood (glucose oxidase enzymatic assay)", "format": "cell-based", "conditions": "typical storage conditions, up to 14 days", "experimental": "as §1"}, "circulating stored RBCs": {"test_system": "circulating stored RBCs", "assay": "Post-transfusion recovery of stored RBCs (flow cytometry)", "format": "in vivo, mouse", "conditions": "blood stored 14 days; 24 hours after transfusion; listed as OCR6043", "experimental": "as §1\nUsing the transfusion methodology described in Hendrickson et al., it was possible to identify the surviving circulating RBCs using flow cytometry."}, "mouse RBC": {"test_system": "mouse RBC", "assay": "Storage of leukoreduced mouse blood in CPDA-1 at 4° C.: hemolysis and intact RBC count", "format": "cell-based", "conditions": "CPDA-1 buffer; for RBC viability / intact RBCs (hemocytometer): 13 days", "experimental": "FIG. 1 illustrates OCR6043-mediated prolonging of the integrity of stored RBCs. Leuko reduced mouse blood was stored under FDA-approved storage conditions (CPDA-1 buffer at 4° C.) for up to 13 days, in either OCR6043, control compound (structurally similar to OCR6043, but nonfunctional as a AGE crosslink breaker), or without any additive.\nThis solution was stored at 4° C. according to FDA-approved conditions for 13 days. […] The steps to collect HOD blood from mice and the addition of the FDA-approved storage buffer CPDA are described in Hendrickson et al., Transfusion of fresh murine red blood cells reverses adverse effects of older stored red blood cells, Transfusion (2011) Vol. 12, pp. 2695-2702.\nWe also counted the intact RBCs using a hemocytometer after 13 days of storage as also depicted in FIG. 1."}, "[3]": {"test_system": "AGE precursor (α-dicarbonyl) on RBCs", "assay": "AGE precursor (α-dicarbonyl) levels on stored RBCs (dicarbonyl-specific fluorophore)", "format": "cell-based, mouse", "conditions": "typical storage conditions, up to 14 days", "experimental": "as §1"}}, "note": "“Also recorded” adds a separate entry of the source. Marks after values point to notes of the source that are not given here."}
{"smiles": "Cc1sc[n+](CC(=O)c2ccccc2)c1C.[Cl-]", "note": "[Compound 2]", "values": [{"measurement": "Immunogenicity upon transfusion (IgG against HOD alloantigen)", "setting": "[1]; listed as ALT-711", "value": "lower immunogenicity"}, {"measurement": "Immunogenicity upon transfusion (IgG against HOD alloantigen)", "setting": "[1]; listed as OCR6043", "value": "decreased immunogenicity; also recorded: attenuated this immune response"}, {"measurement": "% Yield of cycloadduct 20 from substrate 17", "setting": "[2]", "value": "96^b %"}, {"measurement": "Glucose levels in serum of stored blood", "setting": "stored mouse blood", "value": "more effective preservation of glucose levels"}, {"measurement": "Cell survival of transfused stored RBCs versus untreated stored blood", "setting": "circulating stored RBCs", "value": "two-fold increase; also recorded: twofold increase"}, {"measurement": "RBC viability / intact RBCs (hemocytometer)", "setting": "mouse RBC; listed as ALT-711", "value": "higher levels of intact RBCs"}, {"measurement": "RBC viability / intact RBCs (hemocytometer)", "setting": "mouse RBC; listed as OCR6043", "value": "superior cell viability"}, {"measurement": "Hemolysis of stored blood (supernatant appearance)", "setting": "mouse RBC; up to 13 days, 12 mM", "value": "unhemolyzed"}, {"measurement": "Time dependent increase in AGE precursor levels on RBCs", "setting": "[3]", "value": "dampened"}]}
